Experiment [1] addresses TRPV1 channel (Homo sapiens, UniProt Q8NER1). The following applies: cited from earlier work.
The conditions of experiment [2]: experimental animal models; cited from earlier work.
The nature of experiment [3]: Perceived bitterness of caffeinated water formulations. The following applies: caffeinated water formulation. The experiment is classed as in vivo. How it is done:
Liquid formulations were prepared by combining caffeinated water or commercially available grapefruit juice with Cremophor® alone, citric acid alone or the combination of Cremophor® and citric acid. […] Because grapefruit juice naturally contains citric acid, citric acid was not added to the grapefruit juice formulations.

SMILES strings stand for the structures.

Sequence of TRPV1 channel (Q8NER1 whole entry): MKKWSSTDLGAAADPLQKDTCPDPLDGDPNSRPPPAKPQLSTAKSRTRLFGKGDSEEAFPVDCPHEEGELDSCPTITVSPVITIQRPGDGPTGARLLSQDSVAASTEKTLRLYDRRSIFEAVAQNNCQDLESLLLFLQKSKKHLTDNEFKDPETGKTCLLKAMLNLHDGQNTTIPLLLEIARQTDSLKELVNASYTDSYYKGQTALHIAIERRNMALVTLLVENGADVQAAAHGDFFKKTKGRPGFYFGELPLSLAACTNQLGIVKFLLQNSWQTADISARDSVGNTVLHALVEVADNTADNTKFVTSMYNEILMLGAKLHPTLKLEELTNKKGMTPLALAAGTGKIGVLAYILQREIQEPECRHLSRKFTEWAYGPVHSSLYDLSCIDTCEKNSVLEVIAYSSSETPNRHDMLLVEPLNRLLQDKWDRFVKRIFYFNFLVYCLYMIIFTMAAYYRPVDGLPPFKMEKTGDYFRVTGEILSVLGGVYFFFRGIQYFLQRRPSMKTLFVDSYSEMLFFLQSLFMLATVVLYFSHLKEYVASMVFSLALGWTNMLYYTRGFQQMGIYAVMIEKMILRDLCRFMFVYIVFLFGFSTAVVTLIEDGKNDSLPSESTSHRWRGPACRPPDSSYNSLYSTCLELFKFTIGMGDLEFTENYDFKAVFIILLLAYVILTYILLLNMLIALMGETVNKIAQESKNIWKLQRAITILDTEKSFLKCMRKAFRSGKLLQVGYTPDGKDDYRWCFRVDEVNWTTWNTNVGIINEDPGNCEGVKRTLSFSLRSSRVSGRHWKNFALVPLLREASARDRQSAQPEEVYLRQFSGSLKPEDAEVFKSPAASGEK

On to `CCCCCC[C@@H](O)C/C=C/CCCCCCCC(=O)O` (stereo in doubt) [Ricinoleic acid, 12-hydroxy-9-cis-octadecenoic acid], for which the TRPV1 channel desensitization entry in experiment [1] was “can desensitize the TRPV1 channel”. Moreover, in experiment [2], the anti-inflammatory effects entry is on record as “anti-inflammatory effects”.

`O=C(O)CC(O)(CC(=O)O)C(=O)O` [citric acid]: in experiment [3], the perceived bitterness entry is recorded as “little noticeable effect”.

The record behind these values is patent US12350306B2, “Modifying taste and sensory irritation of smokeless tobacco and non-tobacco products” (Altria Client Services LLC, priority 2013, dated 2025).
